According to the supplement of paper PMC8741786:
Values after ≈ are worked out from the molar mass of the structure shown.

What was measured:
Assay in all cases: minimum inhibitory concentration (ETEST)
[1] = test system: Neisseria lactamica; details: population: general population, antibiotic use in previous 6 months: No
Procedure: (§1)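 Oropharyngeal Neisseria isolates from MSM and employees in Belgium were identified to species by MALDI-TOF MS. MICs of azithromycin, ceftriaxone and ciprofloxacin were determined by ETEST on GC agar after 24 h at 36.5 °C and 5-7% CO2, in mg/L. Values beyond the strip range are reported as >256 (azithromycin) or <0.016 (ceftriaxone); isolates that did not grow are NA.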

[2] = test system: Neisseria elongata; details: population: general population, antibiotic use in previous 6 months: No
Procedure: as §1

[3] = test system: Neisseria bacilliformis; details: isolate id (sample isolate): Co000780_5; population: general population; antibiotic use in previous 6 months: No
Procedure: as §1

[4] = test system: Neisseria subflava/flavescens/perflava
Procedure: as §1

CO/N=C(\C(=O)N[C@@H]1C(=O)N2C(C(=O)O)=C(CSc3nc(=O)c(O)nn3C)CS[C@H]12)c1csc(N)n1 [ceftriaxone]
minimum inhibitory concentration [µg/mL]
Details	isolate id (sample isolate): Co000761_1	isolate id (sample isolate): Co000767_3	isolate id (sample isolate): Co000771_1	isolate id (sample isolate): Co000780_1	isolate id (sample isolate): Co000783_4
[1]	< 0.016	–	< 0.016	–	–
[2]	–	0.19 (≈ 0.343 µM)	–	0.047 (≈ 0.0847 µM)	0.023 (≈ 0.0415 µM)

Details	minimum inhibitory concentration [µg/mL]
[3]	1.5 (≈ 2.7 µM)

[4]
Details	minimum inhibitory concentration [µg/mL]
isolate id (sample isolate): 19041762_1, population: MSM, antibiotic use in previous 6 months: Yes	0.016 (≈ 0.0289 µM)
isolate id (sample isolate): 19041762_1.1, population: MSM, antibiotic use in previous 6 months: Yes	0.023 (≈ 0.0415 µM)
isolate id (sample isolate): 19041780_1, population: MSM, antibiotic use in previous 6 months: Yes	0.064 (≈ 0.115 µM)
isolate id (sample isolate): 19042150_1, population: MSM, antibiotic use in previous 6 months: Yes	0.5 (≈ 0.902 µM)
isolate id (sample isolate): 19042150_3, population: MSM, antibiotic use in previous 6 months: Yes	0.047 (≈ 0.0847 µM)
isolate id (sample isolate): 19042756_1, population: MSM, antibiotic use in previous 6 months: Yes	0.023 (≈ 0.0415 µM)
isolate id (sample isolate): 19042756_2, population: MSM, antibiotic use in previous 6 months: Yes	0.023 (≈ 0.0415 µM)
isolate id (sample isolate): 19043201_1.1, population: MSM, antibiotic use in previous 6 months: No	0.047 (≈ 0.0847 µM)
isolate id (sample isolate): 19043201_2.1, population: MSM, antibiotic use in previous 6 months: No	1 (≈ 1.8 µM)
isolate id (sample isolate): 19043201_3, population: MSM, antibiotic use in previous 6 months: No	0.064 (≈ 0.115 µM)
isolate id (sample isolate): 19043274_3, population: MSM, antibiotic use in previous 6 months: Yes	0.064 (≈ 0.115 µM)
isolate id (sample isolate): 19050474_1, population: MSM, antibiotic use in previous 6 months: No	0.047 (≈ 0.0847 µM)
isolate id (sample isolate): 19050514_1, population: MSM, antibiotic use in previous 6 months: Yes	0.047 (≈ 0.0847 µM)
isolate id (sample isolate): 19050949_1, population: MSM, antibiotic use in previous 6 months: No	0.032 (≈ 0.0577 µM)
isolate id (sample isolate): 19050949_2, population: MSM, antibiotic use in previous 6 months: No	0.023 (≈ 0.0415 µM)
isolate id (sample isolate): 19050949_2.1, population: MSM, antibiotic use in previous 6 months: No	0.016 (≈ 0.0289 µM)
isolate id (sample isolate): 19051904_2, population: MSM, antibiotic use in previous 6 months: Yes	0.064 (≈ 0.115 µM)
isolate id (sample isolate): 19051904_3, population: MSM, antibiotic use in previous 6 months: Yes	0.064 (≈ 0.115 µM)
isolate id (sample isolate): 19052394_1, population: MSM, antibiotic use in previous 6 months: Yes	0.032 (≈ 0.0577 µM)
isolate id (sample isolate): 19052394_1.1, population: MSM, antibiotic use in previous 6 months: Yes	0.023 (≈ 0.0415 µM)
isolate id (sample isolate): 19060089_1, population: MSM, antibiotic use in previous 6 months: Yes	0.047 (≈ 0.0847 µM)
isolate id (sample isolate): 19062994_1, population: MSM, antibiotic use in previous 6 months: Yes	0.047 (≈ 0.0847 µM)
isolate id (sample isolate): Co000761_2, population: general population, antibiotic use in previous 6 months: No	0.023 (≈ 0.0415 µM)
isolate id (sample isolate): Co000761_3, population: general population, antibiotic use in previous 6 months: No	0.032 (≈ 0.0577 µM)
isolate id (sample isolate): Co000761_5, population: general population, antibiotic use in previous 6 months: No	0.016 (≈ 0.0289 µM)
isolate id (sample isolate): Co000761_6, population: general population, antibiotic use in previous 6 months: No	0.016 (≈ 0.0289 µM)
isolate id (sample isolate): Co000762_3, population: general population, antibiotic use in previous 6 months: No	0.094 (≈ 0.169 µM)
isolate id (sample isolate): Co000762_4, population: general population, antibiotic use in previous 6 months: No	0.094 (≈ 0.169 µM)
isolate id (sample isolate): Co000763_2, population: general population, antibiotic use in previous 6 months: No	0.032 (≈ 0.0577 µM)
isolate id (sample isolate): Co000764_1, population: general population, antibiotic use in previous 6 months: No	0.032 (≈ 0.0577 µM)
isolate id (sample isolate): Co000764_2, population: general population, antibiotic use in previous 6 months: No	0.023 (≈ 0.0415 µM)
isolate id (sample isolate): Co000765_2, population: general population, antibiotic use in previous 6 months: No	0.047 (≈ 0.0847 µM)
isolate id (sample isolate): Co000765_3, population: general population, antibiotic use in previous 6 months: No	0.032 (≈ 0.0577 µM)
isolate id (sample isolate): Co000765_4, population: general population, antibiotic use in previous 6 months: No	0.023 (≈ 0.0415 µM)
isolate id (sample isolate): Co000766_1, population: general population, antibiotic use in previous 6 months: No	0.023 (≈ 0.0415 µM)
isolate id (sample isolate): Co000766_3, population: general population, antibiotic use in previous 6 months: No	0.032 (≈ 0.0577 µM)
isolate id (sample isolate): Co000767_1, population: general population, antibiotic use in previous 6 months: No	0.023 (≈ 0.0415 µM)
isolate id (sample isolate): Co000767_2, population: general population, antibiotic use in previous 6 months: No	0.023 (≈ 0.0415 µM)
isolate id (sample isolate): Co000767_4, population: general population, antibiotic use in previous 6 months: No	0.023 (≈ 0.0415 µM)
isolate id (sample isolate): Co000767_5, population: general population, antibiotic use in previous 6 months: No	0.064 (≈ 0.115 µM)
isolate id (sample isolate): Co000767_6, population: general population, antibiotic use in previous 6 months: No	0.023 (≈ 0.0415 µM)
isolate id (sample isolate): Co000767_7, population: general population, antibiotic use in previous 6 months: No	0.047 (≈ 0.0847 µM)
isolate id (sample isolate): Co000768_1, population: general population, antibiotic use in previous 6 months: No	0.023 (≈ 0.0415 µM)
isolate id (sample isolate): Co000768_2, population: general population, antibiotic use in previous 6 months: No	0.023 (≈ 0.0415 µM)
isolate id (sample isolate): Co000769_1, population: general population, antibiotic use in previous 6 months: No	0.047 (≈ 0.0847 µM)
isolate id (sample isolate): Co000769_2, population: general population, antibiotic use in previous 6 months: No	0.023 (≈ 0.0415 µM)
isolate id (sample isolate): Co000769_4, population: general population, antibiotic use in previous 6 months: No	0.064 (≈ 0.115 µM)
isolate id (sample isolate): Co000770_2, population: general population, antibiotic use in previous 6 months: No	0.032 (≈ 0.0577 µM)
isolate id (sample isolate): Co000770_4, population: general population, antibiotic use in previous 6 months: No	0.032 (≈ 0.0577 µM)
isolate id (sample isolate): Co000770_6, population: general population, antibiotic use in previous 6 months: No	0.032 (≈ 0.0577 µM)
isolate id (sample isolate): Co000771_2, population: general population, antibiotic use in previous 6 months: No	0.064 (≈ 0.115 µM)
isolate id (sample isolate): Co000771_3, population: general population, antibiotic use in previous 6 months: No	0.016 (≈ 0.0289 µM)
isolate id (sample isolate): Co000771_5, population: general population, antibiotic use in previous 6 months: No	0.064 (≈ 0.115 µM)
isolate id (sample isolate): Co000772_1, population: general population, antibiotic use in previous 6 months: No	0.064 (≈ 0.115 µM)
isolate id (sample isolate): Co000772_2, population: general population, antibiotic use in previous 6 months: No	0.064 (≈ 0.115 µM)
isolate id (sample isolate): Co000772_4, population: general population, antibiotic use in previous 6 months: No	0.023 (≈ 0.0415 µM)
isolate id (sample isolate): Co000772_5, population: general population, antibiotic use in previous 6 months: No	0.023 (≈ 0.0415 µM)
isolate id (sample isolate): Co000772_6, population: general population, antibiotic use in previous 6 months: No	0.016 (≈ 0.0289 µM)
isolate id (sample isolate): Co000773_1, population: general population, antibiotic use in previous 6 months: No	0.064 (≈ 0.115 µM)
isolate id (sample isolate): Co000773_2, population: general population, antibiotic use in previous 6 months: No	0.064 (≈ 0.115 µM)
